System: calf thymus double stranded DNA and ribosomal RNA
Experiment: Determination of DNA/RNA fluorescence ratios
Format: binding
Settings: for DNA/RNA (fluorescence ratio): 65 ug/mL calf thymus dsDNA vs 65 ug/mL ribosomal RNA, 10 mM Tris, 1 mM EDTA pH 7.5, ratio of 1 = no selectivity; for ex/em: emission: emission value, second number of ex/em cell; for ex/em: excitation: excitation value, first number of ex/em cell
Protocol: The tested compound was dissolved as a stock solution in DMSO at a concentration of about 0.1-1.0 mg/mL. The exact concentration is not critical. Three tubes are prepared, each containing the same 1-20 uL of stock solution. The first tube contained 10 mM Tris, 1 mM EDTA (pH 7.5) buffer; the second tube contained buffer and 65 ug/mL calf thymus double stranded DNA; and the third tube contained buffer and 65 ug/mL ribosomal RNA. The tubes were incubated at room temperature for 10-15 minutes with protection from light.
In some cases, it was necessary to dilute the sample to keep the fluorescence signal on-scale. In these cases, all three samples were diluted to the same degree. The ratio of the fluorescence of the compound in the presence of DNA and RNA was determined.
The following compounds were selected as representative of the inventive class of compounds. The fluorescence values in the presence of DNA and RNA were determined as described in the previous Example. […] A ratio of 1 would indicate no selectivity. Excitation and emission values are in nm

SMILES | ex/em: emission [nm] | ex/em: excitation [nm] | DNA/RNA (fluorescence ratio)
COc1cccc(OC)c1-c1ccc2c(c1)sc(C=C1C=C(n3ccnc3)N(Cc3ccccc3)c3ccccc31)[n+]2C [Compound 19] | 553 | 525 | 7.3
COc1cccc(OC)c1-c1ccc2c(c1)sc(C=C1C=C(N3CCNCC3)N(Cc3ccccc3)c3ccccc31)[n+]2C [Compound 21] | 534 | 510 | 5.4
CCN(CC)Cc1ccc(C2=CC(=Cc3sc4cc(-c5c(OC)cccc5OC)ccc4[n+]3C)c3ccccc3N2Cc2ccccc2)cc1 [Compound 25] | 559 | 518 | 9
COc1cccc(OC)c1-c1ccc2c(c1)sc(C=C1C=CN(Cc3ccc(CN4CCN(C)CC4)cc3)c3ccccc31)[n+]2C [Compound 44] | 540 | 510 | 22
COc1cccc(OC)c1-c1ccc2c(c1)sc(C=C1C=CN(Cc3ccc(CN4CCOCC4)cc3)c3ccccc31)[n+]2C [Compound 45] | 541 | 511 | 13.2
COc1cccc(OC)c1-c1ccc2c(c1)sc(C=C1C=CN(Cc3ccc(C[N+](C)(C)CCCN(C)C)cc3)c3ccccc31)[n+]2C [Compound 46] | 542 | 512 | 11.5
COc1cccc(OC)c1-c1ccc2c(c1)sc(C=C1C=CN(Cc3ccc(C[N+](C)(C)C)cc3)c3ccccc31)[n+]2C [Compound 48] | 540 | 513 | 7.3
COc1cccc(OC)c1-c1ccc2c(c1)sc(C=C1C=CN(Cc3ccc(C[N+](C)(C)CCC[N+](C)(C)C)cc3)c3ccccc31)[n+]2C [Compound 49] | 542 | 520 | 18
COc1cccc(OC)c1-c1ccc2c(c1)sc(C=C1C=CN(Cc3ccccc3)c3ccccc31)[n+]2C [Compound 53] | 540 | 510 | 60
COc1cccc(OC)c1-c1ccc2c(c1)sc(C=C1C=CN(Cc3ccncc3)c3ccccc31)[n+]2C [Compound 55] | 541 | 513 | 10.9
COc1cccc(OC)c1-c1ccc2c(c1)sc(C=C1C=CN(Cc3cc[n+](C)cc3)c3ccccc31)[n+]2C [Compound 56] | 545 | 515 | 3.7
COc1cccc(OC)c1-c1ccc2c(c1)sc(C=C1C=CN(CCc3ccccc3)c3ccccc31)[n+]2C [Compound 62] | 539 | 510 | 48
COc1cccc(OC)c1-c1ccc2c(c1)sc(C=C1C=CN(C)c3ccccc31)[n+]2C [Compound 65] | 536 | 506 | 11.3
CCCN(CCCN(C)C)C1=CC(=Cc2sc3cc(-c4c(C)cccc4C)ccc3[n+]2C)c2ccccc2N1c1ccccc1 [Compound 68] | 523 | 498 | 7
Cc1cccc(C)c1-c1ccc2c(c1)sc(C=C1C=C(N(C)CCCN(C)C)N(c3ccccc3)c3ccccc31)[n+]2C [Compound 69] | 523 | 494 | 3.2
Cc1cccc(C)c1-c1ccc2c(c1)sc(C=C1C=C(N(C)CCCN(C)C)N(Cc3ccccc3)c3ccccc31)[n+]2C [Compound 70] | 524 | 501 | 2.7
C[n+]1c(C=C2C=CN(Cc3ccccc3)c3ccccc32)oc2ccc(-c3ccccc3)cc21 [Compound 89] | 512 | 485 | 1.8

The next lines start with results.

ex/em: emission [nm] | ex/em: excitation [nm] | SMILES | DNA/RNA (fluorescence ratio)
532 | 504 | CCCN(CCCN(C)C)C1=CC(=Cc2sc3cc(-c4c(OC)cccc4OC)ccc3[n+]2C)c2ccccc2N1Cc1ccccc1 [Compound 16] | 15.2
533 | 505 | COc1cccc(OC)c1-c1ccc2c(c1)sc(C=C1C=C(N(C)CCN(C)C)N(Cc3ccccc3)c3ccccc31)[n+]2C [Compound 18] | 3.5
534 | 505 | CNCCN(C)C1=CC(=Cc2sc3cc(-c4c(OC)cccc4OC)ccc3[n+]2C)c2ccccc2N1Cc1ccccc1 [Compound 22] | 4.7
529 | 500 | CNCCCN(C)C1=CC(=Cc2sc3cc(-c4c(OC)cccc4OC)ccc3[n+]2C)c2ccccc2N1Cc1ccccc1 [Compound 23] | 3.8
541 | 505 | CCCCC1=CC(=Cc2sc3cc(-c4c(OC)cccc4OC)ccc3[n+]2C)c2ccccc2N1Cc1ccccc1 [Compound 26] | 36
527 | 497 | CCCN(CCCN(C)C)C1=CC(=Cc2sc3cc(-c4c(OC)cccc4OC)ccc3[n+]2C)c2ccccc2N1c1ccccc1 [Compound 28] | 6.5
527 | 495 | CCCN(CCCN(C)C)C1=CC(=Cc2sc3cc(-c4c(OC)cccc4OC)ccc3[n+]2C)c2ccccc2N1C [Compound 30] | 5.7
534 | 505 | CCCN(CCC[N+](C)(C)C)C1=CC(=Cc2sc3cc(-c4c(OC)cccc4OC)ccc3[n+]2C)c2ccccc2N1Cc1ccccc1 [Compound 31] | 10.5
517 | 498 | COC1=CC(=Cc2sc3cc(-c4c(OC)cccc4OC)ccc3[n+]2C)c2ccccc2N1Cc1ccccc1 [Compound 32] | 36
532 | 503 | C#CCN1C(N(CCC)CCCN(C)C)=CC(=Cc2sc3cc(-c4c(OC)cccc4OC)ccc3[n+]2C)c2ccccc21 [Compound 34] | 5.8
522 | 497 | CCCN(CCCN(C)C)C1=CC(=Cc2sc3cc(-c4c(OC)cccc4OC)ccc3[n+]2C)c2ccc(OC)cc2N1Cc1ccccc1 [Compound 38] | 13
536 | 507 | CCCN(CCCN(C)C)C1=CC(=Cc2sc3cc(-c4c(OC)cccc4OC)ccc3[n+]2C)c2cc(OC)ccc2N1Cc1ccccc1 [Compound 39] | 6.1
541 | 512 | COc1cccc(OC)c1-c1ccc2c(c1)sc(C=C1C=CN(Cc3ccc(CN(C)CCCN(C)C)cc3)c3ccccc31)[n+]2C [Compound 47] | 8.6
536 | 506 | CCCCn1cc(N2C(N(CCC)CCCN(C)C)=CC(=Cc3sc4cc(-c5c(OC)cccc5OC)ccc4[n+]3C)c3ccccc32)nn1 [Compound 57] | 3.8
